{"source": "patent US10092620B2", "about": "“Uses of cyclic peptides for treating and preventing atherosclerosis” (THE SCRIPPS RESEARCH INSTITUTE, priority 2013, dated 2018)", "key": {"plasma HDL": {"test_system": "plasma HDL", "assay": "in vivo plasma HDL remodeling after intraperitoneal injection (Western blotting for mouse apoA-I)", "conditions": "male BALB/c mice (n=3), i.p. 20 mg/kg; FIG. 3a; 20 mg/kg", "method": "To ascertain if the cyclic D,L-α-peptides function in vivo as modulators of HDL, we administered 1 to mice (BALB/c, n=3) via intraperitoneal injection (i.p.) at a dose of 20 mg/kg. After various times, blood was drawn and the plasma was analyzed by Western blotting to determine the levels of the HDL subpopulations.\nIn vivo plasma remodeling: Cyclic peptide c[wLwReQeR], 1, was dissolved in 10% sucrose, and sterile filtered through a 0.22-μm syringe filter before injection. Mice were fasted beginning 12 h before dosing, and continued the fast until after the 8-h time point blood draw was completed. Groups of three mice received a 20 mg/kg dose of the cyclic peptide via intraperitoneal injection (0.3 mL). Blood was drawn (30-60 μL) from the retro-orbital sinus into a heparinized capillary tube before dosing (0 min) and at different intervals from 30 min to 8 h after dosing. Plasma was isolated immediately from the whole blood by centrifugation at 5000 rpm for 10 min at 4° C., after which 10 μL of plasma were mixed with 90 μL of 50% sucrose, vortexed for 30 s, and stored at 4° C. until all time points had been collected (samples were stored from 0-8 h). Samples were then mixed with 20 μL of 6× native loading buffer (125 mM tris, pH 6.8, 0.02% bromophenol, 20% glycerol). 6 μL of these samples were loaded onto a 4-20% polyacrylamide gel. Gels were run at constant 80 V at 4° C. for 14 h using a Laemli buffer system (25 mM tris, 192 mM glycine, pH 8.3). Gels were then blotted onto nitrocellulose membranes (0.45 μm, Bio-Rad) at constant 30 V at 4° C. for 2 h using the Laemli buffer (no methanol). The membrane was blocked with 5% non-fat dry milk (NFDM) in TBST (20 mM tris, 150 mM NaCl, pH 7.6, 0.1% Tween-20) for 1 h at 23° C., and then washed once for 10 min with TBST. […]\nIn vivo plasma HDL remodeling activities of some of the peptides were also analyzed. […] Results shown in the figure were determined by Western blotting for mouse apoA-I."}, "LDLr-null mice": {"test_system": "LDLr-null mice", "assay": "in vivo efficacy study: plasma total cholesterol in high-fat-fed LDLr-null mice", "set-up": "species or system mouse", "description": "Encouraged by the above findings, we carried out a 2-week pilot study to determine the effect of 1 on plasma total cholesterol levels. As an animal model, we employed the LDLr-null mouse, which has a human-like lipoprotein profile and is a leading animal model for studying hypercholesterolemia and atherogenesis. Considering that the abiotic nature of cyclic D,L-α-peptides renders them highly resistant to proteolysis, we chose to conduct this pilot in vivo efficacy study via the more convenient oral route of administration. Thus, the cyclic D,L-α-peptide was administered orally in the drinking water for two weeks (each mouse drank ˜0.5 mg peptide per day, or ˜25 mg/kg/day) to mice maintained on a high-fat diet.\nIn vivo efficacy study: LDL receptor-null (LDLr^−/−) mice on a C57BL/6J background were initially purchased from Jackson Laboratories (Bar Harbor, Me.) and were bred in house. The mice were weaned at 4 weeks of age and were fed ad libitum a standard chow diet (Harlan Teklad 7019) until they were 10-weeks old, when they were switched to a high-fat Western diet (WD) containing 15.8% (wt/wt) fat, 1.25% (wt/wt) cholesterol, and no cholate (Harlan Teklad 94059). At the time that the WD was started, the test cyclic peptide was added to the drinking water at a high dose of 180 μM (200 μg/mL) or a low dose of 18 μM (20 μg/mL) and the mice (female, n=8 per dosing group) were continued on WD for 10 weeks. The lyophilized peptide was easily dissolved in PBS (pH 7.4) containing 1% sucrose, resulting in a clear solution. The drinking water solution was replaced with fresh solution every day. A control group of eight mice (female, n=8) were fed WD with vehicle (PBS with 1% sucrose) drinking water. The mice consumed approximately 2.5 mL of water per day per mouse, and there was no significant difference in water or food consumption between groups.\nEffect of cyclic peptides on plasma total cholesterol: The mice were bled after two weeks of treatment and at the time of harvest (10 weeks). The blood (200 μL) was collected after an overnight fast (14-16 h) by retro-orbital puncture into a heparinized capillary tube at two weeks, or by cardiac puncture into EDTA anti-coagulant coated tubes at the time of harvest (10 weeks). Plasma was separated from whole blood immediately by centrifugation of the blood samples at 5000 rpm for 10 min at 4° C., and was then stored at −80° C. Plasma total cholesterol (TC) was measured using an enzymatic colorimetric method kit (Amplex® red cholesterol assay kit, No. A12216, Life Technologies) according to the manufacturer's instructions.\nIn addition, several peptides were administered orally to mice at a 35 mg/kg dose (unless otherwise noted) in the drinking water for two weeks. The female LDLr-null mice maintained on a high-fat diet were provided with peptide-treated 1% sucrose/PBS or 1% sucrose/PBS alone as the drinking water ad libitum. Cholesterol levels were then determined. The data are shown in FIG. 7 as a scatter plot along with mean±SD. p values were determined by the one-way ANOVA test with a post hoc Tukey-Kramer test."}}, "note": "“Also recorded” adds a separate entry of the source. Non-standard residues stand in square brackets, D forms with d. Residues, ends and D or L forms follow the SMILES beside them.", "data": [{"smiles": "CC(C)C[C@@H]1NC(=O)[C@@H](Cc2c[nH]c3ccccc23)NC(=O)[C@H](CCCNC(=N)N)NC(=O)[C@@H](CCC(=O)O)NC(=O)[C@H](CCC(N)=O)NC(=O)[C@@H](CCC(=O)O)NC(=O)[C@H](CCCNC(=N)N)NC(=O)[C@@H](Cc2c[nH]c3ccccc23)NC1=O", "note": "[SEQ ID NO:1, c[wLwReQeR]] (cyclo([dW]L[dW]R[dE]Q[dE]R))", "values": [{"measurement": "level of lipid-poor HDL in plasma", "setting": "plasma HDL", "result": "marked increase in the amount of lipid-poor HDL for up to 8 h; also recorded: increased the level of lipid-poor HDL"}, {"measurement": "reduction in plasma cholesterol levels compared to control animals", "setting": "LDLr-null mice; 10-fold lower dose ~2.5 mg/kg/day in drinking water, after two weeks", "result": 17, "unit": "%"}, {"measurement": "reduction in total plasma cholesterol compared to control animals", "setting": "LDLr-null mice; oral in drinking water ~25 mg/kg/day, 2 weeks, female LDLr-null mice, high-fat diet", "result": 55, "unit": "%"}, {"measurement": "reduction of total plasma cholesterol levels (overview statement)", "setting": "LDLr-null mice; oral in drinking water, LDLr-null mice, high-fat diet for 10 weeks, vs. controls", "result": "up to 55%"}, {"measurement": "total plasma cholesterol level lower than in control animals", "setting": "LDLr-null mice; oral ~25 mg/kg/day, 10 weeks, LDLr-null mice, high-fat diet", "result": 30, "unit": "%"}, {"measurement": "plasma cholesterol vs control (in words)", "setting": "LDLr-null mice; ~2.5 mg/kg/day in drinking water, completion of 10-week study", "result": "no significant differences"}]}]}
